Measurements from publication PMC10239507, “Development of allosteric and selective CDK2 inhibitors for contraception with negative cooperativity to cyclin binding” (Nature Communications, 2023).

Key:
Assay in all cases: biochemical
[1] = target: T1, 371 kinases (kinase named in each endpoint) (Homo sapiens, UniProt P49840); details: GSK3a
T1 construct: purchased Reaction Biology

[2] = target: T2, 371 kinases (kinase named in each endpoint) (Homo sapiens, UniProt Q12866); details: C-MER
T2 construct: purchased Reaction Biology

[3] = target: T3, 371 kinases (kinase named in each endpoint) (Homo sapiens, UniProt Q99986); details: VRK1
T3 construct: purchased Reaction Biology

[4] = target: T4, 371 kinases (kinase named in each endpoint) (Homo sapiens, UniProt Q9P286); details: PAK5
T4 construct: purchased Reaction Biology
T4 sequence (Q9P286 whole entry): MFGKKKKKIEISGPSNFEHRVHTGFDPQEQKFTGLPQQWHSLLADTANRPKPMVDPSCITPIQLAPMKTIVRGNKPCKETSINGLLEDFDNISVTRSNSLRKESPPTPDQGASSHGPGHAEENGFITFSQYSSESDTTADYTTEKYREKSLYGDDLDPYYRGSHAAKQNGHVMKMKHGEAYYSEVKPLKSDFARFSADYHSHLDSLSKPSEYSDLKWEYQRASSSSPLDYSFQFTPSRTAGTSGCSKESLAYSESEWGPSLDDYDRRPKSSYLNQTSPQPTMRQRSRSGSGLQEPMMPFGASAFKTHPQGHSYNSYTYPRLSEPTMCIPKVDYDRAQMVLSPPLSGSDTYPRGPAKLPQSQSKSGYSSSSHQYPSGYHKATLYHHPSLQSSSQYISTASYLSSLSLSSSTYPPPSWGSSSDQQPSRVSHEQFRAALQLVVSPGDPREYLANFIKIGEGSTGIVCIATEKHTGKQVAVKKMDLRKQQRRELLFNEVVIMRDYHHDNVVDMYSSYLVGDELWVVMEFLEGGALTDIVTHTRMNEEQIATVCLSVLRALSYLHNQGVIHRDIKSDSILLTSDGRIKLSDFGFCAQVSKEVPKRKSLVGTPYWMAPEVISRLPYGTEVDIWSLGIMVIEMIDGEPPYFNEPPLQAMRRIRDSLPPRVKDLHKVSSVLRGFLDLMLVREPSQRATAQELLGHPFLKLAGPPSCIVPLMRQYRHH

[5] = target: T5, 371 kinases (kinase named in each endpoint) (Homo sapiens, UniProt P29323); details: EPHB2
T5 construct: purchased Reaction Biology

[6] = target: T6, 371 kinases (kinase named in each endpoint) (Homo sapiens, UniProt Q9BXA7); details: STK22D/TSSK1
T6 construct: purchased Reaction Biology
T6 sequence (Q9BXA7 whole entry): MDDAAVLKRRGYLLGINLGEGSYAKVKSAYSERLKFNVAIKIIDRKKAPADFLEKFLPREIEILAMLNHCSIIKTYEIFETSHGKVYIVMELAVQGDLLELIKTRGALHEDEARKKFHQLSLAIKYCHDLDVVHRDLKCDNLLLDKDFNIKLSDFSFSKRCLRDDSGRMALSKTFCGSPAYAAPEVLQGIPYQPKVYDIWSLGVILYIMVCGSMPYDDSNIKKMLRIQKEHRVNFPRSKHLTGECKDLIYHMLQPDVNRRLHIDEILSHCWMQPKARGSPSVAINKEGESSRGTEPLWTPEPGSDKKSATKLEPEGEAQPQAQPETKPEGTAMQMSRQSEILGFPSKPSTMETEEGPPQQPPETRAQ

[7] = target: T7, 371 kinases (kinase named in each endpoint) (Homo sapiens, UniProt P35916); details: FLT4/VEGFR3
T7 construct: purchased Reaction Biology

[8] = target: T8, 371 kinases (kinase named in each endpoint) (Homo sapiens, UniProt P42679); details: CTK/MATK
T8 construct: purchased Reaction Biology

[9] = target: T9, 371 kinases (kinase named in each endpoint) (Homo sapiens, UniProt P16234); details: PDGFRA
T9 construct: purchased Reaction Biology

[10] = target: T10, 371 kinases (kinase named in each endpoint) (Homo sapiens, UniProt Q16620); details: TRKB
T10 construct: purchased Reaction Biology

[11] = target: T11, 371 kinases (kinase named in each endpoint) (Homo sapiens, UniProt P17948); details: FLT1/VEGFR1
T11 construct: purchased Reaction Biology

[12] = target: T12, 371 kinases (kinase named in each endpoint) (Homo sapiens, UniProt Q9HBH9); details: MNK2
T12 construct: purchased Reaction Biology

[13] = target: T13, 371 kinases (kinase named in each endpoint) (Homo sapiens, UniProt O43187); details: IRAK2
T13 construct: purchased Reaction Biology

[14] = target: T14, 371 kinases (kinase named in each endpoint) (Homo sapiens, UniProt P68400); details: CK2A
T14 construct: purchased Reaction Biology

[15] = target: T15, 371 kinases (kinase named in each endpoint) (Homo sapiens, UniProt P09769); details: FGR
T15 construct: purchased Reaction Biology

[16] = target: T16, 371 kinases (kinase named in each endpoint) (Homo sapiens, UniProt P21709); details: EPHA1
T16 construct: purchased Reaction Biology

[17] = target: T17, 371 kinases (kinase named in each endpoint) (Homo sapiens, UniProt Q9HBY8); details: SGK2
T17 construct: purchased Reaction Biology

[18] = target: T18, 371 kinases (kinase named in each endpoint) (Homo sapiens, UniProt P42684); details: ABL2/ARG
T18 construct: purchased Reaction Biology

[19] = target: T19, 371 kinases (kinase named in each endpoint) (Homo sapiens, UniProt P19784); details: CK2A2
T19 construct: purchased Reaction Biology

[20] = target: T20, 371 kinases (kinase named in each endpoint) (Homo sapiens, UniProt Q9UHD2); details: TBK1
T20 construct: purchased Reaction Biology

[21] = target: T21, 371 kinases (kinase named in each endpoint) (Homo sapiens, UniProt O95382); details: MEKK6
T21 construct: purchased Reaction Biology

[22] = target: T22, 371 kinases (kinase named in each endpoint) (Homo sapiens, UniProt P51451); details: BLK
T22 construct: purchased Reaction Biology

[23] = target: T23, 371 kinases (kinase named in each endpoint) (Homo sapiens, UniProt Q9NRM7); details: LATS2
T23 construct: purchased Reaction Biology

[24] = target: T24, 371 kinases (kinase named in each endpoint) (Homo sapiens, UniProt Q9Y463); details: DYRK1B
T24 construct: purchased Reaction Biology
T24 sequence (Q9Y463 whole entry): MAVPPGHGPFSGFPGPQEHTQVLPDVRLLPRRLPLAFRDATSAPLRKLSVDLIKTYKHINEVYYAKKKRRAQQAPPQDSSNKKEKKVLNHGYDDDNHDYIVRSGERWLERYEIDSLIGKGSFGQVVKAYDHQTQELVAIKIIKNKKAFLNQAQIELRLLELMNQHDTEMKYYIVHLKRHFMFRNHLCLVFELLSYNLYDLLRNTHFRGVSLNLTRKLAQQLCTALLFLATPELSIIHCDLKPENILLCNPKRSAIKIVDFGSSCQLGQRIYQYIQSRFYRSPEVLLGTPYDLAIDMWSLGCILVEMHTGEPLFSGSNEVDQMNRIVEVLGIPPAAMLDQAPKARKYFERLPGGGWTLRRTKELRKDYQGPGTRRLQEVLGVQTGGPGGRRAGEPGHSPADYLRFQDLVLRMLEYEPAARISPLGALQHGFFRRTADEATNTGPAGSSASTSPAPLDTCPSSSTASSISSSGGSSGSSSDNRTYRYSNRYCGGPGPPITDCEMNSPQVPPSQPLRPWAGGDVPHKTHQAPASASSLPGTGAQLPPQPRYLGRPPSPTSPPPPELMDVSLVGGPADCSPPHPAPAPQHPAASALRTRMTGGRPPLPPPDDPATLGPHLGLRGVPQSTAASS

[25] = target: T25, 371 kinases (kinase named in each endpoint) (Homo sapiens, UniProt Q6P5Z2); details: PKN3/PRK3
T25 construct: purchased Reaction Biology

[26] = target: T26, 371 kinases (kinase named in each endpoint) (Homo sapiens, UniProt Q6VAB6); details: KSR2
T26 construct: purchased Reaction Biology

[27] = target: T27, 371 kinases (kinase named in each endpoint) (Homo sapiens, UniProt O00238); details: ALK6/BMPR1B
T27 construct: purchased Reaction Biology
T27 sequence (O00238 14-502): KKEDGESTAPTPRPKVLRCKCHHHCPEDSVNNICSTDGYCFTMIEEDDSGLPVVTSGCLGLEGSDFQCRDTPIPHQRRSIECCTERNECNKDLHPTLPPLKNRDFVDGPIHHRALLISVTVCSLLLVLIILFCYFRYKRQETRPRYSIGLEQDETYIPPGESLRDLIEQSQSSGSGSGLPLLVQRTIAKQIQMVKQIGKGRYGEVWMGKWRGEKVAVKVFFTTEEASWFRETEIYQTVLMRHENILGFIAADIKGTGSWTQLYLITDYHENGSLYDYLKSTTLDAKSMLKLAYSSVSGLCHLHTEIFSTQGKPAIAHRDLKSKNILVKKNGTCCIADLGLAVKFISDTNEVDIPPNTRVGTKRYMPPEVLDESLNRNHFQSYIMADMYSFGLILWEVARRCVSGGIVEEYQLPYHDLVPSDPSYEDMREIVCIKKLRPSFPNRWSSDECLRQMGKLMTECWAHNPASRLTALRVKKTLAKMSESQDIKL

[28] = target: T28, 371 kinases (kinase named in each endpoint) (Homo sapiens, UniProt Q16512); details: PKN1/PRK1
T28 construct: purchased Reaction Biology

[29] = target: T29, 371 kinases (kinase named in each endpoint) (Homo sapiens, UniProt Q05397); details: FAK/PTK2
T29 construct: purchased Reaction Biology

[30] = target: T30, 371 kinases (kinase named in each endpoint) (Homo sapiens, UniProt Q96PN8); details: TSSK3/STK22C
T30 construct: purchased Reaction Biology
T30 sequence (Q96PN8 whole entry): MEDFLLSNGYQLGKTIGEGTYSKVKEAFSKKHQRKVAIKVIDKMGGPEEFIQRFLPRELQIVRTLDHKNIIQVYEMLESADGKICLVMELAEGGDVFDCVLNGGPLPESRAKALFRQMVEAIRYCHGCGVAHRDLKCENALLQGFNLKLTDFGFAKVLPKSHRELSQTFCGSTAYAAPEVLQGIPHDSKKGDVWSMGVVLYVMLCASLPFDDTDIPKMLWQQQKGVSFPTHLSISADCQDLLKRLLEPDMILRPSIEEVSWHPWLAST

[31] = target: T31, 371 kinases (kinase named in each endpoint) (Homo sapiens, UniProt P23443); details: P70S6K/RPS6KB1
T31 construct: purchased Reaction Biology

[32] = target: T32, 371 kinases (kinase named in each endpoint) (Homo sapiens, UniProt Q07002); details: CDK18/CYCLIN Y (PCTK3)
T32 construct: purchased Reaction Biology

[33] = target: T33, 371 kinases (kinase named in each endpoint) (Homo sapiens, UniProt Q14012); details: CAMK1A
T33 construct: purchased Reaction Biology
T33 sequence (Q14012 whole entry): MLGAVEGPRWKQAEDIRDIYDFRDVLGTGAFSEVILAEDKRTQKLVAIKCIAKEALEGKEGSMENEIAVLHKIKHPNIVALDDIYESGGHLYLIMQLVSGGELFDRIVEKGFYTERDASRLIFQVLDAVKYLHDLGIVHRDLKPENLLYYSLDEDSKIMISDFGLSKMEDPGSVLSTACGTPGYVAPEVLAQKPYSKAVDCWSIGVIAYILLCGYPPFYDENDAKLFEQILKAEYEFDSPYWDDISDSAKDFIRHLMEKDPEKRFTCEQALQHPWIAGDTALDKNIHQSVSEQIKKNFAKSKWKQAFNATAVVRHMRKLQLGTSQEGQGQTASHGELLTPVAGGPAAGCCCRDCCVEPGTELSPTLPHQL

[34] = target: T34, 371 kinases (kinase named in each endpoint) (Homo sapiens, UniProt P54764); details: EPHA4
T34 construct: purchased Reaction Biology

[35] = target: T35, 371 kinases (kinase named in each endpoint) (Homo sapiens, UniProt P57078); details: RIPK4
T35 construct: purchased Reaction Biology

[36] = target: T36, 371 kinases (kinase named in each endpoint) (Homo sapiens, UniProt P54762); details: EPHB1
T36 construct: purchased Reaction Biology

[37] = target: T37, 371 kinases (kinase named in each endpoint) (Homo sapiens, UniProt Q8NEV4); details: MYO3A
T37 construct: purchased Reaction Biology
T37 sequence (Q8NEV4 whole entry): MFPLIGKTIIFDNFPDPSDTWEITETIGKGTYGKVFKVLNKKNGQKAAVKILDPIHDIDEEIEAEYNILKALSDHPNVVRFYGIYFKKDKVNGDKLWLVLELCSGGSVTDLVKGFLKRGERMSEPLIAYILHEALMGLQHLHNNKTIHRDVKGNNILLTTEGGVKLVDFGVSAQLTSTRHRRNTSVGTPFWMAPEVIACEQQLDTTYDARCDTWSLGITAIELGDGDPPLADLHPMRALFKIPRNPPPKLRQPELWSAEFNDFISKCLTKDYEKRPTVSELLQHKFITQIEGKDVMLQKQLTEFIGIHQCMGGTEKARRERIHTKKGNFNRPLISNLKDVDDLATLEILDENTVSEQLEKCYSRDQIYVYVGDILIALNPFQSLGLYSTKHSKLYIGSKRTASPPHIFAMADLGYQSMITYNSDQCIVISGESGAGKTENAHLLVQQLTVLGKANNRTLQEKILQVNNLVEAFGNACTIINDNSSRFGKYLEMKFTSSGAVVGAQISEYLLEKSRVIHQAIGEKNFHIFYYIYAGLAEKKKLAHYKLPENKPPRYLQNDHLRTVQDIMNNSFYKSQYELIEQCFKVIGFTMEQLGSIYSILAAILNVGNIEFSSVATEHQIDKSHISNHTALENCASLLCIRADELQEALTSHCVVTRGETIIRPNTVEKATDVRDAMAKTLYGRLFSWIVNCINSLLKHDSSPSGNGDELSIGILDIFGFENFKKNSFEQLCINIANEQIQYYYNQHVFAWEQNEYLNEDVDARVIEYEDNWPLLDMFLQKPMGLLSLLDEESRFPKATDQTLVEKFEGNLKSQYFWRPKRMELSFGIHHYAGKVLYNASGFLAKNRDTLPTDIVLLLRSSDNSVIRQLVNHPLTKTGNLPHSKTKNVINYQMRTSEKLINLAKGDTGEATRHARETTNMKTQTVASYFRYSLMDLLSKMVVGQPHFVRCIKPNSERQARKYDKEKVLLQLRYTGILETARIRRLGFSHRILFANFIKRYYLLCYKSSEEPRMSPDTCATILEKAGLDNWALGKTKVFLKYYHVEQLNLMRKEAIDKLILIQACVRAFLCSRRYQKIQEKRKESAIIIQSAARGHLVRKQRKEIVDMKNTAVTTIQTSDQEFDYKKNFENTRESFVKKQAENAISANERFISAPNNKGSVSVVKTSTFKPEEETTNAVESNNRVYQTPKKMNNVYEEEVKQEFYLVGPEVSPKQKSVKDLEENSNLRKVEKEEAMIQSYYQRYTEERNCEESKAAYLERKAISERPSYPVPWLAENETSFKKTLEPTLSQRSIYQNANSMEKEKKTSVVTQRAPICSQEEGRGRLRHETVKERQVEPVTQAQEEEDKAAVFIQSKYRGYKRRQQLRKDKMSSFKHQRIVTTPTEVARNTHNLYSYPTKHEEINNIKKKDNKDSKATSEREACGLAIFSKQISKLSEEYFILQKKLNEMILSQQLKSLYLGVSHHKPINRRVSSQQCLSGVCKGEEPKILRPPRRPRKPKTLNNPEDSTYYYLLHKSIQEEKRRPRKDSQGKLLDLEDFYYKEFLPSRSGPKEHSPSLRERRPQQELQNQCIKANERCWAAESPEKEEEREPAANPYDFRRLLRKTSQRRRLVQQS

T1 sequence (P49840 whole entry): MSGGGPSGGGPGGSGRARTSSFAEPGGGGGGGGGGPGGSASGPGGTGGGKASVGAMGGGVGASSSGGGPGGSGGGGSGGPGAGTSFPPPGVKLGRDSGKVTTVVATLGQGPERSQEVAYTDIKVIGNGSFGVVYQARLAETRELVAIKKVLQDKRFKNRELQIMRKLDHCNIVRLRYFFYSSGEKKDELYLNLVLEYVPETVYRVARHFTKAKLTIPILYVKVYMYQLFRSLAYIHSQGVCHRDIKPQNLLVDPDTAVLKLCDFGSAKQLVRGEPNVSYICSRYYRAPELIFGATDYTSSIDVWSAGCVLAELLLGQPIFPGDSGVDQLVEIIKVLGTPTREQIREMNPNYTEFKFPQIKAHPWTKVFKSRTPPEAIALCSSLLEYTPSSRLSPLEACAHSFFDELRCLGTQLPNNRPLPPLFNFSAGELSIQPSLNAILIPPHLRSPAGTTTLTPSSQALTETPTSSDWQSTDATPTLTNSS

**Q.** Which activity at 10 µM [1] does the source give for `O=C(O)c1cc(C(F)(F)F)ccc1NCCc1c[nH]c2cc(Br)ccc12` [Compound 5, 2-((2-(6-Bromo-1H-indol-3-yl)ethyl)amino)−5-(trifluoromethyl)benzoic Acid] here?
**A.** 67.6 ± 0.3%

**Q.** What about the activity at 10 µM [2] of the same compound?
**A.** 52.1 ± 1.5%

**Q.** And the activity at 10 µM [3]?
**A.** 105 ± 1.5%

**Q.** And the activity at 10 µM [4]?
**A.** 101.2 ± 0.3%

**Q.** And the activity at 10 µM [5]?
**A.** 89.8%

**Q.** What about the activity at 10 µM [6] of the same compound?
**A.** 103.5 ± 0.1%

**Q.** And the activity at 10 µM [7]?
**A.** 102 ± 3.7%

**Q.** And the activity at 10 µM [8]?
**A.** 71.1 ± 3.8%

**Q.** What about the activity at 10 µM [9] of the same compound?
**A.** 86.9 ± 0.2%

**Q.** What about the activity at 10 µM [10] of the same compound?
**A.** 45.4 ± 7.4%

**Q.** What about the activity at 10 µM [11] of the same compound?
**A.** 85 ± 0.7%

**Q.** And the activity at 10 µM [12]?
**A.** 93.3 ± 1.9%

**Q.** And the activity at 10 µM [13]?
**A.** 145 ± 0.9%

**Q.** What about the activity at 10 µM [14] of the same compound?
**A.** 59.1 ± 0.1%

**Q.** And the activity at 10 µM [15]?
**A.** 83.5 ± 1.1%

**Q.** What about the activity at 10 µM [16] of the same compound?
**A.** 102.2 ± 0.1%

**Q.** What about the activity at 10 µM [17] of the same compound?
**A.** 63.9 ± 2%

**Q.** What about the activity at 10 µM [18] of the same compound?
**A.** 94.7 ± 2.8%

**Q.** What about the activity at 10 µM [19] of the same compound?
**A.** 46.9 ± 0.5%

**Q.** What about the activity at 10 µM [20] of the same compound?
**A.** 117 ± 1.2%

**Q.** What about the activity at 10 µM [21] of the same compound?
**A.** 108 ± 1.4%

**Q.** What about the activity at 10 µM [22] of the same compound?
**A.** 92.7 ± 1.3%

**Q.** And the activity at 10 µM [23]?
**A.** 79.1 ± 1.6%

**Q.** And the activity at 10 µM [24]?
**A.** 64.8 ± 1.1%

**Q.** What about the activity at 10 µM [25] of the same compound?
**A.** 98.3 ± 1.2%

**Q.** What about the activity at 10 µM [26] of the same compound?
**A.** 83.3 ± 1.5%

**Q.** What about the activity at 10 µM [27] of the same compound?
**A.** 96.7 ± 0.2%

**Q.** What about the activity at 10 µM [28] of the same compound?
**A.** 123 ± 1.9%

**Q.** What about the activity at 10 µM [29] of the same compound?
**A.** 88.2 ± 1.5%

**Q.** What about the activity at 10 µM [30] of the same compound?
**A.** 68.9 ± 0.2%

**Q.** What about the activity at 10 µM [31] of the same compound?
**A.** 85.4 ± 0.7%

**Q.** What about the activity at 10 µM [32] of the same compound?
**A.** 99 ± 0.1%

**Q.** What about the activity at 10 µM [33] of the same compound?
**A.** 69.1 ± 1%

**Q.** And the activity at 10 µM [34]?
**A.** 94.3 ± 0.5%

**Q.** And the activity at 10 µM [35]?
**A.** 45.4 ± 0.9%

**Q.** What about the activity at 10 µM [36] of the same compound?
**A.** 91.2%

**Q.** What about the activity at 10 µM [37] of the same compound?
**A.** 118 ± 3.4%
